Key:
MK2 [1] = target: T1, MK2 (Homo sapiens, UniProt P49137); assay: MK2 degradation in human THP-1 monocytic cells (MSD, 24 h); type: cell-based; parameters: endogenous in cells; settings: for Dmax: THP-1, THP-1 cells; for DC50: THP-1 cells, read-out: MK2 MSD THP-1 degradation 24 h GMean External Abs DC50
Method in brief: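 Readout: residual MK2 protein in THP-1 lysates, measured by MSD electrochemiluminescence sandwich assay after 24 h compound exposure (≤10-point serial dilutions, 0.1% DMSO, 37 °C). Curves normalised between lysis-buffer and DMSO-cell signals; DC50 by 4-parameter logistic fit.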

MK2 [2] = target: T1, MK2; assay: MK2 degradation in human SW1353 cells (MSD, 24 h); type: cell-based; parameters: endogenous in cells; host or cells: SW-1353 (ATCC HTB-94); key to MK2 MSD SW 1353 24 h Dmax %: —: “-”=not tested or inactive; settings: for Dmax: read-out: MK2 MSD SW 1353 24 h Dmax %; for DC50: read-out: MK2 MSD SW1353 degradation 24 h GMean External Abs DC50
Method in brief: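 DC50 derived by 4-parameter logistic fit, with DMSO-treated signal as top and lysis-buffer signal as bottom. Remaining MK2 was measured by MSD electrochemiluminescent sandwich assay in RIPA lysates of human SW1353 cells exposed for 24 h at 37 °C to serially diluted compound in 0.1% DMSO.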

T1 sequence (P49137 whole entry): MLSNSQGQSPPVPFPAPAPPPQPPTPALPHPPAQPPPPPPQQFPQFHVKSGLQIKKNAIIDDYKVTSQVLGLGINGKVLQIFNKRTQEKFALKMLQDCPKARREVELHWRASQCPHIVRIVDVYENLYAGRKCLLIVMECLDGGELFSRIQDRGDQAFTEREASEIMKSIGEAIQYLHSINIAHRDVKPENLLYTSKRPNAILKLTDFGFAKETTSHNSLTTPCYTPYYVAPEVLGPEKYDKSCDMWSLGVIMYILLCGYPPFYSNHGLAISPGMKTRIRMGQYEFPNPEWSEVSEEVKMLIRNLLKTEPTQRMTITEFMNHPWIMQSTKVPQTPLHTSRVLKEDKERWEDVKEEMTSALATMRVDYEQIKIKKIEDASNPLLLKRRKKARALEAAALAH

Row | Dmax (MK2 [1]) [%] | DC50 (MK2 [1]) [nM] | Dmax (MK2 [2]) [%] | DC50 (MK2 [2]) [nM] | SMILES | MK2 MSD SW 1353 24 h Dmax % (MK2 [2])
1 | > 75 | < 1 | > 75 | 1 to 10 | C[C@@H]1CNc2c(sc3ccc4nc(-c5cnc(N6CCN(CC7CCN(c8cccc9c8n(C)c(=O)n9C8CCC(=O)NC8=O)CC7)CC6)nc5)ccc4c23)C(=O)N1 (stereo partly drawn) [Compound I-281] | 
2 | > 75 | < 1 | > 75 | < 1 | C[C@@H]1CNc2c(sc3ccc4nc(-c5cnc(N6CCN(CC7CCN(c8ccc9c(c8)n(C)c(=O)n9C8CCC(=O)NC8=O)CC7)CC6)nc5)ccc4c23)C(=O)N1 (stereo partly drawn) [Compound I-282] | 
3 | > 75 | < 1 | > 75 | < 1 | Cc1nc(N2CCN(CC3CCN(c4ccc5c(c4)n(C)c(=O)n5C4CCC(=O)NC4=O)CC3)CC2)ccc1-c1ccc2c(ccc3sc4c(c32)NC[C@@H](C)NC4=O)n1 (stereo partly drawn) [Compound I-283] | 
4 | > 75 | 1 to 10 | > 75 | 1 to 10 | C[C@@H]1CNc2c(sc3ccc4nc(-c5cc(N6CCC(CN7CCC(c8cccc9c8n(C)c(=O)n9C8CCC(=O)NC8=O)CC7)CC6)ccc5F)ccc4c23)C(=O)N1 (stereo partly drawn) [Compound I-284] | 
5 | > 75 | 1 to 10 | > 75 | 1 to 10 | C[C@@H]1CNc2c(sc3ccc4nc(-c5cc(N6CCC(CN7CCN(c8cccc9c8n(C)c(=O)n9C8CCC(=O)NC8=O)CC7)CC6)ccc5F)ccc4c23)C(=O)N1 (stereo partly drawn) [Compound I-285] | 
6 | 50 to 75 | 10 to 100 | > 75 | 10 to 100 | C[C@@H]1CNc2c(sc3ccc4nc(-c5cc(N6CCN(CCCCCCCCc7cccc8c7n(C)c(=O)n8C7CCC(=O)NC7=O)CC6)ccc5F)ccc4c23)C(=O)N1 (stereo partly drawn) [Compound I-286] | 
7 | > 75 | < 1 | > 75 | < 1 | C[C@@H]1CNc2c(sc3ccc4nc(-c5ccc(N6CCN(CCCc7ccc8c(c7)n(C)c(=O)n8C7CCC(=O)NC7=O)CC6)nc5)ccc4c23)C(=O)N1 (stereo partly drawn) [Compound I-287] | 
8 | > 75 | < 1 | > 75 | < 1 | C[C@@H]1CNc2c(sc3ccc4nc(-c5ccc(N6CCN(CCCc7cccc8c7n(C)c(=O)n8C7CCC(=O)NC7=O)CC6)nc5)ccc4c23)C(=O)N1 (stereo partly drawn) [Compound I-288] | 
9 | > 75 | < 1 | > 75 | 1 to 10 | C[C@@H]1CNc2c(sc3ccc4nc(-c5ccc(N6CCN(CC7CCN(c8ccc9c(c8)n(C)c(=O)n9C8CCC(=O)NC8=O)CC7)CC6)cc5F)ccc4c23)C(=O)N1 (stereo partly drawn) [Compound I-289] | 
10 | > 75 | < 1 | > 75 | 1 to 10 | C[C@@H]1Cc2[nH]c(-c3ccnc(-c4ccc(N5CCN(CC6CCN(c7cccc8c7n(C)c(=O)n8C7CCC(=O)NC7=O)CC6)CC5)cc4)c3)cc2C(=O)N1 (stereo partly drawn) [Compound I-290] | 
11 | > 75 | < 1 | > 75 | < 1 | Cc1cc(N2CCC(CN3CCC(c4ccc5c(c4)n(C)c(=O)n5C4CCC(=O)NC4=O)CC3)CC2)ccc1-c1ccc2c(ccc3sc4c(c32)NC[C@@H](C)NC4=O)n1 (stereo partly drawn) [Compound I-291] | 
12 | > 75 | < 1 | > 75 | 1 to 10 | C[C@@H]1CNc2c(sc3ccc4nc(-c5ccc(N6CCC(CN7CCN(c8ccc9c(c8)n(C)c(=O)n9C8CCC(=O)NC8=O)CC7)CC6)cc5Cl)ccc4c23)C(=O)N1 (stereo partly drawn) [Compound I-292] | 
13 | > 75 | < 1 | > 75 | 10 to 100 | C[C@@H]1CNc2c(sc3ccc4nc(-c5cccc(N6CCC7(CC6)CN(CCCCCCc6cccc8c6n(C)c(=O)n8C6CCC(=O)NC6=O)C7)c5)ccc4c23)C(=O)N1 (stereo partly drawn) [Compound I-293] | 
14 | > 75 | < 1 | > 75 | 1 to 10 | C[C@@H]1CNc2c(sc3ccc4nc(-c5ccc(N6CCC7(CC6)CN(CCCCCCc6cccc8c6n(C)c(=O)n8C6CCC(=O)NC6=O)C7)cc5)ccc4c23)C(=O)N1 (stereo partly drawn) [Compound I-294] | 
15 | 50 to 75 | 10 to 100 | > 75 | 10 to 100 | O=C1CCC(N2Cc3cc(N4CCN(CC5CCN(c6ccc(-c7cc(-c8cc9c([nH]8)CCNC9=O)ccn7)c(F)c6)CC5)CC4)ccc3C2=O)C(=O)N1 (stereo not drawn) [Compound I-295] | 
16 |  | 1 to 10 |  | 10 to 100 | C[C@@H]1CNc2c(sc3ccc4nc(-c5cccc(C6CCN(CCN7CCC(CCc8cccc9c8n(C)c(=O)n9C8CCC(=O)NC8=O)CC7)CC6)c5)ccc4c23)C(=O)N1 (stereo partly drawn) [Compound I-296] | —
17 | > 75 | < 1 | > 75 | < 1 | C[C@@H]1CNc2c(sc3ccc4nc(-c5ccc(N6CCC(CN7CCC(c8ccc9c(c8)n(C)c(=O)n9C8CCC(=O)NC8=O)CC7)CC6)cc5F)ccc4c23)C(=O)N1 (stereo partly drawn) [Compound I-297] | 
18 | > 75 | < 1 | > 75 | < 1 | Cc1cc(N2CCC(CN3CCN(c4ccc5c(c4)n(C)c(=O)n5C4CCC(=O)NC4=O)CC3)CC2)ccc1-c1ccc2c(ccc3sc4c(c32)NC[C@@H](C)NC4=O)n1 (stereo partly drawn) [Compound I-298] | 
19 | > 75 | < 1 | > 75 | < 1 | C[C@@H]1CNc2c(sc3ccc4nc(-c5ccc(N6CCC(CN7CCC(c8cccc9c8n(C)c(=O)n9C8CCC(=O)NC8=O)CC7)CC6)cc5F)ccc4c23)C(=O)N1 (stereo partly drawn) [Compound I-299] | 
20 | < 50 | > 100 | < 50 | > 100 | O=C1CCC(N2Cc3cc(N4CCN(CC5CCN(c6ccc(F)c(-c7cc(-c8cc9c([nH]8)CCNC9=O)ccn7)c6)CC5)CC4)ccc3C2=O)C(=O)N1 (stereo not drawn) [Compound I-301] | 
21 | > 75 | 1 to 10 | > 75 | 1 to 10 | C[C@@H]1CNc2c(sc3ccc4nc(-c5ccc(N6CCN(CC7CCN(c8ccc9c(c8)CN(C8CCC(=O)NC8=O)C9=O)CC7)CC6)cc5)ccc4c23)C(=O)N1 (stereo partly drawn) [Compound I-302] | 
22 | > 75 | < 1 | > 75 | 1 to 10 | C[C@@H]1CNc2c(sc3ccc4nc(-c5cccc(N6CCN(CC7CCN(c8ccc9c(c8)CN(C8CCC(=O)NC8=O)C9=O)CC7)CC6)c5)ccc4c23)C(=O)N1 (stereo partly drawn) [Compound I-303] | 
23 | > 75 | 1 to 10 | > 75 | 1 to 10 | C[C@@H]1CNc2c(sc3ccc4nc(-c5cccc(N6CCC(CN7CCN(c8ccc9c(c8)CN(C8CCC(=O)NC8=O)C9=O)CC7)CC6)c5)ccc4c23)C(=O)N1 (stereo partly drawn) [Compound I-304] | 
24 | > 75 | < 1 | > 75 | < 1 | Cn1c(=O)n(C2CCC(=O)NC2=O)c2ccc(C3CCN(CC4CCN(c5ccc(-c6cc(-c7cc8c([nH]7)CCNC8=O)ccn6)c(F)c5)CC4)CC3)cc21 (stereo not drawn) [Compound I-305] | 
25 | > 75 | < 1 | > 75 | < 1 | C[C@@H]1CNc2c(sc3ccc4nc(-c5ccc(N6CCC(CN7CCN(c8ccc9c(c8)n(C)c(=O)n9C8CCC(=O)NC8=O)CC7)CC6)cc5F)ccc4c23)C(=O)N1 (stereo partly drawn) [Compound I-306] | 
26 | > 75 | 1 to 10 | > 75 | 1 to 10 | C[C@@H]1CNc2c(sc3ccc4nc(-c5ccc(N6CCC(CN7CCN(c8cccc9c8n(C)c(=O)n9C8CCC(=O)NC8=O)CC7)CC6)cc5F)ccc4c23)C(=O)N1 (stereo partly drawn) [Compound I-307] | 
27 | > 75 | 1 to 10 | > 75 | 1 to 10 | C[C@@H]1CNc2c(sc3ccc4nc(-c5cccc(N6CCC(CN7CCN(c8cccc9c(N%10CCC(=O)NC%10=O)cncc89)CC7)CC6)c5)ccc4c23)C(=O)N1 [Compound I-310] | 
28 | > 75 | 1 to 10 | > 75 | 1 to 10 | C[C@@H]1CNc2c(sc3ccc4nc(-c5ccc(N6CCC(CN7CCC(c8cccc9c(N%10CCC(=O)NC%10=O)cncc89)CC7)CC6)cc5)ccc4c23)C(=O)N1 [Compound I-311] | 
29 | > 75 | 1 to 10 | > 75 | 1 to 10 | C[C@@H]1CNc2c(sc3ccc4nc(-c5cccc(N6CCC(CN7CCC(c8cccc9c(N%10CCC(=O)NC%10=O)cncc89)CC7)CC6)c5)ccc4c23)C(=O)N1 [Compound I-312] | 

Row | SMILES | Dmax (MK2 [1]) [%] | DC50 (MK2 [1]) [nM] | Dmax (MK2 [2]) [%] | DC50 (MK2 [2]) [nM] | MK2 MSD SW 1353 24 h Dmax % (MK2 [2])
30 | Cn1c(=O)n(C2CCC(=O)NC2=O)c2cccc(CCCCCCN3CCC4(CC3)CNC(=O)c3c4[nH]c4c3CCc3cnc(-c5ccccc5F)cc3-4)c21 (stereo not drawn) [Compound I-300] | < 50 | > 100 | < 50 | > 100 | 
31 | Cn1c(=O)n(C2CCC(=O)NC2=O)c2cccc(CCCCCCCCN3CCC4(CC3)CNC(=O)c3c4[nH]c4c3CCc3cnc(-c5ccccc5F)cc3-4)c21 (stereo not drawn) [Compound I-309] | < 50 | > 100 |  | > 100 | —

— patent publication US20230135894A1, “MK2 DEGRADERS AND USES THEREOF” (Kymera Therapeutics, Inc., priority 2021, published 2023)
